Read-outs that look alike come from different tables or passages of the source.
What was measured:
SK-OV-3 = test: NCI60 one-dose screen (10 μM), Ovarian Cancer; assay type: cell-based; conditions: Homo sapiens; 10 μM; SK-OV-3, Ovarian Cancer; read-out: Growth percent rate
UACC-62 [1] = test: NCI60 one-dose screen (10 μM), Melanoma; assay type: cell-based; conditions: Homo sapiens; 10 μM; UACC-62, Melanoma; read-out: Growth percent rate
MOLT-4 = test: NCI60 five-dose screen, Leukemia; assay type: cell-based; conditions: Homo sapiens; MOLT-4, Leukemia; five-dose screen; read-out: GI50
NCI/ADR-RES [2] = test: NCI60 five-dose screen, Ovarian Cancer; assay type: cell-based; conditions: Homo sapiens, Ovarian Cancer, five-dose screen, read-out: GI50
CCRF-CEM = test: NCI60 five-dose screen, Leukemia; assay type: cell-based; conditions: Homo sapiens, Leukemia, five-dose screen, read-out: GI50
NCI-H460 = test: NCI60 five-dose screen, Non-small Cell Lung Cancer; assay type: cell-based; conditions: Homo sapiens; NCI-H460, Non-small Cell Lung Cancer; five-dose screen; read-out: GI50
EKVX = test: NCI60 one-dose screen (10 μM), Non-small Cell Lung Cancer; assay type: cell-based; conditions: Homo sapiens, 10 μM, Non-small Cell Lung Cancer, read-out: Growth percent rate
MCF7 = test: NCI60 five-dose screen, Breast Cancer; assay type: cell-based; conditions: Homo sapiens; MCF7, Breast Cancer; five-dose screen; read-out: GI50
MDA-MB-231/ATCC = test: NCI60 one-dose screen (10 μM), Breast Cancer; assay type: cell-based, human
HOP-92 = test: NCI60 five-dose screen, Non-small Cell Lung Cancer; assay type: cell-based; conditions: Homo sapiens; HOP-92, Non-small Cell Lung Cancer; five-dose screen; read-out: GI50
NCI-H226 = test: NCI60 one-dose screen (10 μM), Non-small Cell Lung Cancer; assay type: cell-based; conditions: Homo sapiens; 10 μM; NCI-H226, Non-small Cell Lung Cancer; read-out: Growth percent rate
CAKI-1 [3] = test: NCI60 five-dose screen, Renal Cancer; assay type: cell-based; conditions: Homo sapiens; CAKI-1, Renal Cancer; five-dose screen; read-out: GI50
[4] = system: 60 human tumor cell lines (NCI60); test: NCI60 five-dose screen, whole panel and sub-panel means; assay type: cell-based; conditions: Homo sapiens, read-out: GI50 Mean
SW-620 = test: NCI60 five-dose screen, Colon Cancer; assay type: cell-based; conditions: Homo sapiens; SW-620, Colon Cancer; five-dose screen; read-out: GI50
OVCAR-5 [5] = test: NCI60 five-dose screen, Ovarian Cancer; assay type: cell-based; conditions: Homo sapiens; OVCAR-5, Ovarian Cancer; five-dose screen; read-out: GI50
UACC-257 = test: NCI60 five-dose screen, Melanoma; assay type: cell-based; conditions: Homo sapiens; UACC-257, Melanoma; five-dose screen; read-out: GI50
MDA-MB-468 = test: NCI60 one-dose screen (10 μM), Breast Cancer; assay type: cell-based; conditions: Homo sapiens; 10 μM; MDA-MB-468, Breast Cancer; read-out: Growth percent rate
OVCAR-5 [6] = test: NCI60 one-dose screen (10 μM), Ovarian Cancer; assay type: cell-based; conditions: Homo sapiens; 10 μM; OVCAR-5, Ovarian Cancer; read-out: Growth percent rate
MDA-MB-435 = test: NCI60 one-dose screen (10 μM), Melanoma; assay type: cell-based; conditions: Homo sapiens; 10 μM; MDA-MB-435, Melanoma; read-out: Growth percent rate
M14 = test: NCI60 five-dose screen, Melanoma; assay type: cell-based; conditions: Homo sapiens; M14, Melanoma; five-dose screen; read-out: GI50
A549/ATCC = test: NCI60 five-dose screen, Non-small Cell Lung Cancer; assay type: cell-based; conditions: Homo sapiens; A549/ATCC, Non-small Cell Lung Cancer; five-dose screen; read-out: GI50
CAKI-1 [7] = test: NCI60 one-dose screen (10 μM), Renal Cancer; assay type: cell-based; conditions: Homo sapiens; 10 μM; CAKI-1, Renal Cancer; read-out: Growth percent rate
HCC-2998 [8] = test: NCI60 five-dose screen, Colon Cancer; assay type: cell-based; conditions: Homo sapiens; HCC-2998, Colon Cancer; five-dose screen; read-out: GI50
MALME-3M = test: NCI60 five-dose screen, Melanoma; assay type: cell-based; conditions: Homo sapiens; MALME-3M, Melanoma; five-dose screen; read-out: GI50
SR = test: NCI60 one-dose screen (10 μM), Leukemia; assay type: cell-based; conditions: Homo sapiens, 10 μM, Leukemia, read-out: Growth percent rate
MDA-MB231ATCC = test: NCI60 five-dose screen, Breast Cancer; assay type: cell-based; conditions: Homo sapiens, MDA-MB-231; MDA-MB231ATCC, Breast Cancer; five-dose screen; read-out: GI50
ACHN = test: NCI60 five-dose screen, Renal Cancer; assay type: cell-based; conditions: Homo sapiens, Renal Cancer, five-dose screen, read-out: GI50
HL-60(TB) = test: NCI60 five-dose screen, Leukemia; assay type: cell-based; conditions: Homo sapiens; HL-60(TB), Leukemia; five-dose screen; read-out: GI50
HCC-2998 [9] = test: NCI60 one-dose screen (10 μM), Colon Cancer; assay type: cell-based; conditions: Homo sapiens; 10 μM; HCC-2998, Colon Cancer; read-out: Growth percent rate
UO-31 = test: NCI60 one-dose screen (10 μM), Renal Cancer; assay type: cell-based; conditions: Homo sapiens; 10 μM; UO-31, Renal Cancer; read-out: Growth percent rate
OVCAR-4 [10] = test: NCI60 one-dose screen (10 μM), Ovarian Cancer; assay type: cell-based; conditions: Homo sapiens; 10 μM; OVCAR-4, Ovarian Cancer; read-out: Growth percent rate
OVCAR-4 [11] = test: NCI60 five-dose screen, Ovarian Cancer; assay type: cell-based; conditions: Homo sapiens; OVCAR-4, Ovarian Cancer; five-dose screen; read-out: GI50
NCI-H23 [12] = test: NCI60 five-dose screen, Non-small Cell Lung Cancer; assay type: cell-based; conditions: Homo sapiens; NCI-H23, Non-small Cell Lung Cancer; five-dose screen; read-out: GI50
NCI/ADR-RES [13] = test: NCI60 one-dose screen (10 μM), Ovarian Cancer; assay type: cell-based; conditions: Homo sapiens, 10 μM, Ovarian Cancer, read-out: Growth percent rate
NCI-H322M = test: NCI60 five-dose screen, Non-small Cell Lung Cancer; assay type: cell-based; conditions: Homo sapiens, Non-small Cell Lung Cancer, five-dose screen, read-out: GI50
T-47D = test: NCI60 one-dose screen (10 μM), Breast Cancer; assay type: cell-based; conditions: Homo sapiens, T47D; 10 μM; T-47D, Breast Cancer; read-out: Growth percent rate
HOP-62 = test: NCI60 five-dose screen, Non-small Cell Lung Cancer; assay type: cell-based; conditions: Homo sapiens; HOP-62, Non-small Cell Lung Cancer; five-dose screen; read-out: GI50
SK-MEL-5 = test: NCI60 five-dose screen, Melanoma; assay type: cell-based; conditions: Homo sapiens; SK-MEL-5, Melanoma; five-dose screen; read-out: GI50
BT-549 = test: NCI60 one-dose screen (10 μM), Breast Cancer; assay type: cell-based; conditions: Homo sapiens; 10 μM; BT-549, Breast Cancer; read-out: Growth percent rate
UACC-62 [14] = test: NCI60 five-dose screen, Melanoma; assay type: cell-based; conditions: Homo sapiens; UACC-62, Melanoma; five-dose screen; read-out: GI50
NCI-H23 [15] = test: NCI60 one-dose screen (10 μM), Non-small Cell Lung Cancer; assay type: cell-based; conditions: Homo sapiens; 10 μM; NCI-H23, Non-small Cell Lung Cancer; read-out: Growth percent rate

In the case of `CCC12C=CCN3CCC4(c5cc(NC(=O)CN6CCN(c7ccc(C(F)(F)F)cc7)CC6)c(OC)cc5N(C)C4C(O)(C(=O)OC)C1OC(C)=O)C32` (stereo not drawn) [Compound 17], the activity at 10 µM (SK-OV-3) was 6.93%, the activity at 10 µM (UACC-62 [1]) was -54.8% and the GI50 (MOLT-4) was 2.09 µM. For the same molecule, the GI50 (NCI/ADR-RES [2]) was 6.03 µM, the GI50 (CCRF-CEM) was 3.24 µM and the GI50 (NCI-H460) was 6.46 µM. It also gave an activity at 10 µM (EKVX) of 21.3%, a GI50 (MCF7) of 3.72 µM and a growth percent rate (MDA-MB-231/ATCC; 10 μM one-dose, MDA-MB-231/ATCC breast cancer, negative = lethality) of −86.10%. For the same molecule, the activity at 10 µM (MDA-MB-231/ATCC; Homo sapiens, 10 μM, MDA-MB-231/ATCC, Breast Cancer, read-out: Growth percent rate) was -86.2%, the GI50 (HOP-92) was 2.57 µM and the activity at 10 µM (NCI-H226) was -61.9%. For the same molecule, the GI50 (CAKI-1 [3]) was 2.63 µM, the GI50 ([4]; 60 cell, mean over all 60 cell lines) was 5.53 µM and the GI50 ([4]; mean over Breast Cancer panel) was 6.11 µM. For the same molecule, the GI50 ([4]; mean over CNS Cancer panel) was 4.01 µM, the GI50 ([4]; mean over Colon Cancer panel) was 4.31 µM and the GI50 ([4]; mean over Leukemia panel) was 2.75 µM. The GI50 ([4]; mean over Melanoma panel) was 5.89 µM, the GI50 ([4]; mean over Non-small Cell Lung Cancer panel) was 7.29 µM and the GI50 ([4]; mean over Ovarian Cancer panel) was 6.48 µM. It also gave a GI50 ([4]; mean over Prostate Cancer panel) of 4.88 µM, a GI50 ([4]; mean over Renal Cancer panel) of 6.01 µM and a GI50 (SW-620) of 5.75 µM. For the same molecule, the GI50 (OVCAR-5 [5]) was 10.7 µM, the GI50 (UACC-257) was 5.5 µM and the activity at 10 µM (MDA-MB-468) was -62.5%. For the same molecule, the activity at 10 µM (OVCAR-5 [6]) was -41.6%, the activity at 10 µM (MDA-MB-435) was -79.8% and the GI50 (M14) was 3.63 µM. The GI50 (A549/ATCC) was 4.07 µM, the activity at 10 µM (CAKI-1 [7]) was 10.8% and the GI50 (HCC-2998 [8]) was 7.76 µM. For the same molecule, the GI50 (MALME-3M) was 14.8 µM, the activity at 10 µM (SR) was -11.4% and the GI50 (MDA-MB231ATCC) was 11.2 µM. For the same molecule, the GI50 (ACHN) was 5.62 µM, the GI50 (HL-60(TB)) was 2.14 µM and the activity at 10 µM (HCC-2998 [9]) was -69.9%. The activity at 10 µM (UO-31) was 0.08%, the activity at 10 µM (OVCAR-4 [10]) was 20.4% and the GI50 (OVCAR-4 [11]) was 3.89 µM. For the same molecule, the GI50 (NCI-H23 [12]) was 10.7 µM, the activity at 10 µM (NCI/ADR-RES [13]) was 0.4% and the GI50 (NCI-H322M) was 15.1 µM. For the same molecule, the activity at 10 µM (T-47D) was 9.79%, the GI50 (HOP-62) was 3.72 µM and the GI50 (SK-MEL-5) was 2.4 µM. It also gave an activity at 10 µM (BT-549) of -50.4%, a GI50 (UACC-62 [14]) of 10.2 µM and an activity at 10 µM (NCI-H23 [15]) of 15.2%.

Reference: PMC11277489, “Novel Piperazine Derivatives of Vindoline as Anticancer Agents” (International Journal of Molecular Sciences, 2024)
